Test results: patent US20240174648A1, “Small Molecule Compound” (Technoderma Medicines Pte Ltd, priority 2019, published 2024)

Assays:
[1] = molecular target: Tyk2 (Homo sapiens, UniProt P29597); assay: JAK kinase inhibition assay (EZ Reader, peptide substrate phosphorylation) - Tyk2; assay type: biochemical; settings: Tyk2 kinase 1 nM; 8 concentration points, max 10 μM
Source text: (§1) Assay for Identifying Inhibitory Effects of Compounds on JAK Kinases
(§2) Janus kinases (JAK), including JAK1, JAK2, JAK3 and Tyk2, transduce a cytokine-mediated signal through a JAK-STAT pathway. The kinases are 120-140 kDa in size and have 7 determined homology regions: JH1 to JH7. JH1 is an important region for enzymatic activity and has typical characteristics of tyrosine kinases. Phosphorylation of tyrosine leads to a change in the conformation of JAK protein, thereby promoting binding of substrate. The JAK-STAT system includes three main parts: receptors penetrating a cell membrane, Janus kinases binding to the receptors, and signal transducers and activators of transcription (STAT) for transmitting signals to a nucleus and DNA. When cytokines bind to receptors, JAK phosphorylates the receptors and attracts STAT proteins. The STAT proteins are also phosphorylated and combined with one another to form dimers. The dimers enter the nucleus and bind to DNA, thereby leading to gene transcription.
(§3) EZ Reader from PerkinElmer can be used to detect the phosphorylation of polypeptide substrates catalyzed by kinases. The device is based on microfluidic techniques, and can directly detect fluorescently labeled substrates and products. The separation step is achieved by controlling the pressure and electric field strength in the microfluidic chip. In kinase assays, a product conversion ratio is usually controlled to be 20-30%. A biological test is used to identify inhibitory effects of compounds on JAKs.
(§4) Compound powder was dissolved in DMSO, sealed and stored in a freezer under −20° C. The in-house compound Ref1 was used as a positive control for JAK1, JAK2 and Tyk2 tests, and Ref2 was used as a positive control for JAK3 tests.
(§5) S2.8. Assay buffer: 20 mM HEPES buffer, pH 7.4, 10 mM magnesium chloride, 0.01% bovine serum albumin BSA, 0.0005% Tween-20 and 1 mM dithiothreitol solution.
(§6) S2.9. Stop buffer: 180 mM HEPES buffer, 20 mM ethylenediaminetetraacetic acid and 0.2% coating reagent 3.
(§7) S2.10. Separation buffer: 100 mM HEPES buffer, 10 mM ethylenediaminetetraacetic acid, 0.0005% Tween 20, 0.1% coating reagent 3 and 1% dimethyl sulfoxide.
(§8) The compound was dissolved in dimethyl sulfoxide and diluted to 10 mM concentration, a certain volume of solution was taken and diluted to 0.6 mM concentration, 10 μL of the 0.6 mM dilution was added to a 384-well microplate, and then was diluted 3-fold with a total of 8 concentration points.
(§9) Positive control (HPE1): Ref1, final concentration: 10 μM […]
(§10) Negative control (ZPE): DMSO, final content: 1.6%
(§11) Compounds: maximum final concentration: 10 μM; 3-fold dilution, 8 concentration points and 2 duplicates.
(§12) S4.1. 250 nL of the compound was added to each well of the assay microplate by using ECHO, and centrifuged at 1000 rpm for 1 minute.
(§13) S4.2. 5 μL of the assay buffer was added and agitated for a few seconds to fully dissolve the compound.
(§14) S4.3. 5 μL of 3× substrate solution and 5 μL of 3× kinase solution were added and centrifuged at 800 rpm for 1 minute.
(§15) S4.4. Final concentrations of JAK1, JAK2, JAK3 and Tyk2 kinases in the reaction system were 20 nM, 1 nM, 1 nM and 1 nM respectively.
(§16) S4.5. Incubation at room temperature, where kinases had time differences, and different batches of kinases had time differences.
(§17) S4.6. When 20%-30% of the reaction completed, 15 μL of stop buffer was added to stop the reaction, and centrifuged at 1000 rpm for 2 minutes.
(§18) S4.7. The microplates were placed on EZ Reader for reading.
(§19) S4.8. Readings on EZ Reader were calculated by using a peak height, where product conversion ratio (%)=product/(product+substrate)*100.
(§20) 5. Data Processing: IC50 calculation
(§21) A graphing software Xlfit was used to form a concentration curve of the test compound, and an IC50 value was calculated.
(§22) “A” means “≥10 μM”; “B” means “≥1 μM and <10 μM”; “C” means “≥0.1 μM and <1 μM”; and “D” means “<0.1 μM”.

[2] = molecular target: JAK1 (Homo sapiens, UniProt P23458); assay: JAK kinase inhibition assay (EZ Reader, peptide substrate phosphorylation) - JAK1; assay type: biochemical; settings: JAK1 kinase 20 nM; 8 concentration points, max 10 μM
Source text: as §1, §2, §3, §4, §5, §6, §7, §8, §9, §10, §11, §12, §13, §14, §15, §16, §17, §18, §19, §20, §21, §22

Sequence of Tyk2 (P29597 whole entry): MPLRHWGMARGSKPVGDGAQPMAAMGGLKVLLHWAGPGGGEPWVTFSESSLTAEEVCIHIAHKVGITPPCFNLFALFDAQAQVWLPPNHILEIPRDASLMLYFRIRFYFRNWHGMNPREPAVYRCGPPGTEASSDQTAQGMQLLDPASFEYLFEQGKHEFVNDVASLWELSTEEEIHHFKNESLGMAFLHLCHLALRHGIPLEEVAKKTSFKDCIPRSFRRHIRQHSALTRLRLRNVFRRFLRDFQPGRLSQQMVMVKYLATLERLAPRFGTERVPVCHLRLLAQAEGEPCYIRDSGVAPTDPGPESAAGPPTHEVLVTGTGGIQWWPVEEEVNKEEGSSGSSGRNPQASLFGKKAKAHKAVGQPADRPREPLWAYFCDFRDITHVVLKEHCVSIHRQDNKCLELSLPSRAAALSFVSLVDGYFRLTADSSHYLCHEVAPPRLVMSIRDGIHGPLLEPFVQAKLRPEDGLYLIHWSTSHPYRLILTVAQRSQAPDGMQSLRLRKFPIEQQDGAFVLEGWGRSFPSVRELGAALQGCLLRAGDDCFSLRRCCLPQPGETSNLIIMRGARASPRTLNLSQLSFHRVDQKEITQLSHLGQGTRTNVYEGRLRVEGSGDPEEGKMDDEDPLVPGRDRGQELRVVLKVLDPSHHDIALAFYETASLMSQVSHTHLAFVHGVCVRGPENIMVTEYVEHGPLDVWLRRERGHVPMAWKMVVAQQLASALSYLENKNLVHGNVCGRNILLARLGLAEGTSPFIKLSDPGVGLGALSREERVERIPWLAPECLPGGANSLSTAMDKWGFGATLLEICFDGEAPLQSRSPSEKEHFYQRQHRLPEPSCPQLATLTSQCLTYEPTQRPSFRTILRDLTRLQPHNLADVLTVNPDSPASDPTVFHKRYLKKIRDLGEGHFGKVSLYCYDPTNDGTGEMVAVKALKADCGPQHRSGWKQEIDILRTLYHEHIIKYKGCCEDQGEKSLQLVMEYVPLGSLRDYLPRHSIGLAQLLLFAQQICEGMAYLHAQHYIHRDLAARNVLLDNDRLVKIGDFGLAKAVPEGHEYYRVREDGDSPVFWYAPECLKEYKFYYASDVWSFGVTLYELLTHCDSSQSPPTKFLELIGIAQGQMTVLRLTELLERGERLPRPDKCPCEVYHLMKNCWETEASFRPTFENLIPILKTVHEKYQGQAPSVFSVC
Sequence of JAK1 (P23458 whole entry): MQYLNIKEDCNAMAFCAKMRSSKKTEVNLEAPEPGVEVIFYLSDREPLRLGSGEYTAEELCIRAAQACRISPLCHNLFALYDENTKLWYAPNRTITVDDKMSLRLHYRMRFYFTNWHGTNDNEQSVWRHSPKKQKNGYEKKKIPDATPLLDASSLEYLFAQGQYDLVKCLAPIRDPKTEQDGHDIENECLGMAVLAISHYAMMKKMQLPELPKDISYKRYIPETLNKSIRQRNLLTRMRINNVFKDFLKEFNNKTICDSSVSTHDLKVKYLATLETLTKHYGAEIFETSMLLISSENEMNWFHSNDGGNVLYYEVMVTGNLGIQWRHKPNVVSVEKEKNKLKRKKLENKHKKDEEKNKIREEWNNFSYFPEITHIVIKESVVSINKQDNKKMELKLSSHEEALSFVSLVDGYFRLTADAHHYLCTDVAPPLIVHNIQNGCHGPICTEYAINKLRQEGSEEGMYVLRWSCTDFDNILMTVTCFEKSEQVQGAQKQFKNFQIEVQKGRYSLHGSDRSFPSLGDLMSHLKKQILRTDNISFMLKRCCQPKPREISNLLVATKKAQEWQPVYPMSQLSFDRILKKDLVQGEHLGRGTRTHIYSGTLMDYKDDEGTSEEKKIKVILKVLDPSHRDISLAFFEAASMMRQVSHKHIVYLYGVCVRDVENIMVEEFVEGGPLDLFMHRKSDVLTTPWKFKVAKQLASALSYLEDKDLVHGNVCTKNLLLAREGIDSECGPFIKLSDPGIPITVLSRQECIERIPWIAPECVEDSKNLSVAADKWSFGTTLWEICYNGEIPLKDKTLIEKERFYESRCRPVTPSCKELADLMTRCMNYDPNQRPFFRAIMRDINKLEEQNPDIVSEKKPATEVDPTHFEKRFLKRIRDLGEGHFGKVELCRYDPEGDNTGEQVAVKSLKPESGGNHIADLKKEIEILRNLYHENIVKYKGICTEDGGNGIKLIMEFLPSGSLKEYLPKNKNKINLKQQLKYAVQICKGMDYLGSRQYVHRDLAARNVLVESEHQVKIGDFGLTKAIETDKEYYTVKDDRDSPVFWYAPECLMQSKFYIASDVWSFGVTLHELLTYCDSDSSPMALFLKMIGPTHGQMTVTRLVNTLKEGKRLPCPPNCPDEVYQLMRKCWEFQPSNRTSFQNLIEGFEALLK

SMILES	IC50 [1] [µM]	IC50 [2] [µM]
Cn1cc(Nc2nccc(-c3ccnc(NC(=O)C4CC4)c3)n2)cn1 [TDM-180773, N-(4-(2-((1-methyl-1H-pyrazol-4-yl)amino)pyrimidin-4-yl)-pyridin-2-yl)cyclopropanemethane]	≥ 10	≥ 10
Cn1cc(Nc2nccc(-c3ccnc(NC(=O)CC#N)c3)n2)cn1 [TDM-180774, 2-cyano-N-(4-(2-((1-methyl-1H-pyrazol-4-yl)amino)pyrimidin-4-yl)pyridin-2-yl)acetamide]	≥ 10	≥ 10
COCC(=O)Nc1cc(-c2ccnc(Nc3cnn(C)c3)n2)ccn1 [TDM-180777, 2-methoxy-N-(4-(2-((1-methyl-1H-pyrazol-4-yl)amino)pyrimidin-4-yl)pyridin-2-yl)acetamide]	≥ 10	≥ 10
Cc1cc(-c2ccnc(Nc3cnn(C)c3)n2)ccc1C(=O)NCC#N [TDM-180779, N-(cyanomethyl)-2-methyl-4-(2-((1-methyl-1H-pyrazol-4-yl)amino)pyrimidin-4-yl)benzamide]	1 to 10	1 to 10
Cn1cc(Nc2nccc(-c3ccc(C(=O)NC4CC4(F)F)nc3)n2)cn1 (centres unmarked) [TDM-180781, N-(2,2-difluorocyclopropyl)-5-(2-((1-methyl-1H-pyrazol-4-yl)amino)pyrimidin-4-yl)pyridinecarboxamide]	1 to 10	1 to 10
Cc1cc(-c2ccnc(Nc3cnn(C)c3)n2)ccc1-n1nccc1C1CC1 [TDM-180782, 4-(4-(5-cyclopropyl-1H-pyrazol-1-yl)-3-methylphenyl)-N-(1-methyl-1H-pyrazol-4-yl)pyrimidin-2-amine]	1 to 10	≥ 10
Cc1cc(-c2ccnc(Nc3cnn(C)c3)n2)ccc1NC(=O)CC(F)(F)F [TDM-180783, 3,3,3-trifluoro-N-(2-methyl-4-(2-((1-methyl-1H-pyrazol-4-yl)amino)pyrimidin-4-yl)phenyl)propanamide]	1 to 10	0.1 to 1
Cc1cc(-c2ccnc(Nc3cnn(C)c3)n2)ccc1C(=O)NCC#N [TDM-180784, N-(cyanomethyl)-2-methyl-4-(2-((1-methyl-1H-pyrazol-4-yl)amino)pyrimidin-4-yl)benzamide]	–	0.1 to 1
Cn1cc(Nc2nccc(-c3ccc(CN4CCOCC4)cc3)n2)cn1 [TDM-180787, N-(1-methyl-1H-pyrazol-4-yl)-4-(4-(morpholinomethyl)phenyl)pyrimidine-2-amine]	1 to 10	1 to 10
CN1CCN(Cc2ccc(-c3ccnc(Nc4cnn(C)c4)n3)cc2)CC1 [TDM-180788, N-(1-methyl-1H-pyrazol-4-yl)-4-(4-((4-methylpiperazine-1-yl)methyl)phenyl)pyrimidin-2-amine]	1 to 10	1 to 10
CC(=O)N1CCN(Cc2ccc(-c3ccnc(Nc4cnn(C)c4)n3)cc2)CC1 [TDM-180789, 1-(4-(4-(2-((1-methyl-1H-pyrazol-4-yl)amino)pyrimidin-4-yl)benzyl)piperazin-1-yl)ethan-1-one]	1 to 10	≥ 10
Cn1cc(Nc2nccc(-c3ccnc(NC(=O)CC(F)(F)F)c3)n2)cn1 [TDM-180790, 3,3,3-trifluoro-N-(4-(2-((1-methyl-1H-pyrazol-4-yl)amino)pyrimidin-4-yl)pyridin-2-yl)propanamide]	≥ 10	≥ 10
Cn1cc(Nc2nccc(-c3ccc(NC(=O)CO)cc3)n2)cn1 [TDM-180791, 2-hydroxy-N-(4-(2-((1-methyl-1H-pyrazol-4-yl)amino)pyrimidin-4-yl)phenyl)acetamide]	1 to 10	0.1 to 1
Cn1cc(Nc2nccc(-c3ccnc(NC(=O)C4CC4(F)F)c3)n2)cn1 (centres unmarked) [TDM-180792, 2,2-difluoro-N-(4-(2-((1-methyl-1H-pyrazol-4-yl)amino)pyrimidin-4-yl)pyridin-2-yl)cyclopropane-1-carboxamide]	≥ 10	≥ 10
COCCC(=O)Nc1ccc(-c2ccnc(Nc3cnn(C)c3)n2)cc1 [TDM-180799, 3-methoxy-N-(4-(2-((1-methyl-1H-pyrazol-4-yl)amino)pyrimidin-4-yl)phenyl)propanamide]	1 to 10	0.1 to 1
Cn1cc(Nc2nccc(-c3ccc(NC(=O)CO)nc3)n2)cn1 [TDM-180806, 2-hydroxy-N-(5-(2-((1-methyl-1H-pyrazol-4-yl)amino)pyrimidin-4-yl)pyridin-2-yl)acetamide]	1 to 10	1 to 10
Cn1cc(Nc2nccc(-c3ccc(C(=O)NC4CC4)nc3)n2)cn1 [TDM-180826, N-cyclopropyl-5-(2-((1-methyl-1H-pyrazol-4-yl)amino)pyrimidin-4-yl)pyridinecarboxamide]	1 to 10	1 to 10
CCS(=O)(=O)Nc1ccc(-c2ccnc(Nc3cnn(C)c3)n2)cn1 [TDM-180829, N-(5-(2-((1-methyl-1H-pyrazol-4-yl)amino)pyrimidin-4-yl)pyridin-2-yl)ethanesulfonamide]	1 to 10	1 to 10
COCC(=O)Nc1ccc(-c2ccnc(Nc3cnn(C)c3)n2)cn1 [TDM-180831, 2-methoxy-N-(5-(2-((1-methyl-1H-pyrazol-4-yl)amino)pyrimidin-4-yl)pyridin-2-yl)acetamide]	≥ 10	1 to 10
Cn1cc(Nc2nccc(-c3ccc(C(=O)NC4CC4)cc3)n2)cn1 [TDM-180852, N-cyclopropyl-4-(2-((1-methyl-1H-pyrazol-4-yl)amino)pyrimidin-4-yl)benzamide]	1 to 10	1 to 10
Cn1cc(Nc2nccc(-c3ccc(NC(=O)C4(C)CC4)nc3)n2)cn1 [TDM-180853, 1-methyl-N-(5-(2-((1-methyl-1H-pyrazol-4-yl)amino)pyrimidin-4-yl)pyridin-2-yl)cyclopropane-1-carboxamide]	1 to 10	1 to 10
Cn1cc(Nc2nccc(-c3ccc(NC(=O)CC#N)c4[nH]ccc34)n2)cn1 [TDM-180867, 2-cyano-N-(4-(2-((1-methyl-1H-pyrazol-4-yl)amino)pyrimidin-4-yl)-1H-indol-7-yl)acetamide]	0.1 to 1	0.1 to 1
Cn1cc(Nc2nccc(-c3ccc(NC(=O)C4CC4(F)F)c4[nH]ccc34)n2)cn1 (centres unmarked) [TDM-180868, 2,2-difluoro-N-(4-(2-((1-methyl-1H-pyrazol-4-yl)amino)pyrimidin-4-yl)-1H-indol-7-yl)cyclopropane-1-carboxamide]	< 0.1	< 0.1
Cn1cc(Nc2nccc(-c3ccc(NC(=O)C4CC4)c4[nH]ccc34)n2)cn1 [TDM-180869, N-(4-(2-((1-methyl-1H-pyrazol-4-yl)amino)pyrimidin-4-yl)-1H-indol-7-yl)cyclopropanecarboxamide]	0.1 to 1	0.1 to 1
Cn1cc(Nc2nccc(-c3ccc(NC(=O)CC(F)(F)F)c4[nH]ccc34)n2)cn1 [TDM-180870, 3,3,3-trifluoro-N-(4-(2-((1-methyl-1H-pyrazol-4-yl)amino)pyrimidin-4-yl)-1H-indol-7-yl)propanamide]	0.1 to 1	< 0.1
Cn1cc(Nc2nccc(-c3ccc(NS(=O)(=O)C4CCOCC4)nc3)n2)cn1 [TDM-180875, N-(5-(2-((1-methyl-1H-pyrazol-4-yl)amino)pyrimidin-4-yl)pyridin-2-yl)tetrahydro-2H-pyran-4-sulfonamide]	1 to 10	0.1 to 1
Cn1cc(Nc2nccc(-n3ccc4c(NC(=O)C5CC5)cccc43)n2)cn1 [TDM-180876, N-(1-(2-((1-methyl-1H-pyrazol-4-yl)amino)pyrimidin-4-yl)-1H-indole-4-yl)cyclopropanemethane]	0.1 to 1	< 0.1
